Measured values: ChEMBL document CHEMBL1155059, “Synthesis and biological evaluation of trisubstituted imidazole derivatives as inhibitors of p38alpha mitogen-activated protein kinase” (Bioorg Med Chem Lett, 2008)

Columns and labels:
[1] = molecular target: Mitogen-activated protein kinase 14 (Homo sapiens, UniProt Q16539); assay: Inhibition of human recombinant p38alpha MAPK expressed in Escherichia coli by radioisotopic protein kinase assay
TGF-beta receptor type-1 = molecular target: T1, TGF-beta receptor type-1 (Homo sapiens, UniProt P36897); assay: Inhibition of GST fused human recombinant ALK5 expressed in Sf9 cells by radioisotopic protein kinase assay
T1 sequence (P36897 whole entry): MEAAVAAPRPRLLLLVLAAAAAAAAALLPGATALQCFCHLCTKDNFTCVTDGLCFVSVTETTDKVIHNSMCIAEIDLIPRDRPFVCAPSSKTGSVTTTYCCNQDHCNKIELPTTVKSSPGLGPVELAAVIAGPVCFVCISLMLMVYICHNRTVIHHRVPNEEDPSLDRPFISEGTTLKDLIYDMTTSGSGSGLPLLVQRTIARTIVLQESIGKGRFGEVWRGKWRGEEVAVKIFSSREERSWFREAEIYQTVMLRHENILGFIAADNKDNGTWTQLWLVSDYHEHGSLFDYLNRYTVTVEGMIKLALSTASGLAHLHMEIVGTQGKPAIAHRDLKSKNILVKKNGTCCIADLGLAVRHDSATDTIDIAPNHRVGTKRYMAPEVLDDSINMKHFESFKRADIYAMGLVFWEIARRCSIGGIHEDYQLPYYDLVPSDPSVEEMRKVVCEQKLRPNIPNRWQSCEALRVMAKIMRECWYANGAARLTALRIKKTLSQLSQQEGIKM

Mitogen-activated protein kinase 14, sequence (Q16539 whole entry, the tested form may be a part): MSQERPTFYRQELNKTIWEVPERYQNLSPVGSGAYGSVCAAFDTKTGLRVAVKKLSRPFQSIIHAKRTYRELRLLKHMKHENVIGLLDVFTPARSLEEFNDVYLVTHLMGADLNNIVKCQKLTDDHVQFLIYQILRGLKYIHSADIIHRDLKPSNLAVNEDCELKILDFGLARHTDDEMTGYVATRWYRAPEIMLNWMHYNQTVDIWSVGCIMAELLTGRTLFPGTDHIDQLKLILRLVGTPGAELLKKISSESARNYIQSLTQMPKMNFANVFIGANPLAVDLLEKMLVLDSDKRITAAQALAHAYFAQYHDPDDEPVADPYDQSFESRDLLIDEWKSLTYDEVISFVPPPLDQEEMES

Structure (SMILES): C[C@H](Nc1nccc(-c2[nH]c(Cc3cccc(C#N)c3)nc2-c2ccc(F)cc2)n1)c1ccccc1
- IC50 [1]: 95.4 nM
- IC50 (TGF-beta receptor type-1): > 1000 nM

Structure (SMILES): C[C@H](Nc1nccc(-c2[nH]c(Cc3cccc(C(N)=O)c3)nc2-c2ccc(F)cc2)n1)c1ccccc1
- IC50 [1]: 78 nM
- IC50 (TGF-beta receptor type-1): > 1000 nM

Structure (SMILES): N#Cc1cccc(Cn2cnc(-c3ccc(F)cc3)c2-c2ccnc(N)n2)c1
- IC50 [1]: 101 nM
- IC50 (TGF-beta receptor type-1): > 1000 nM

Structure (SMILES): N#Cc1cccc(Cc2nc(-c3ccc(F)cc3)c(-c3ccnc(N)n3)[nH]2)c1
- IC50 [1]: 28 nM
- IC50 (TGF-beta receptor type-1): > 1000 nM

Structure (SMILES): C[C@H](Nc1nccc(-c2ncn(Cc3ccc(C#N)cc3)c2-c2ccc(F)cc2)n1)c1ccccc1
- IC50 [1]: > 1000 nM
- IC50 (TGF-beta receptor type-1): > 1000 nM

Structure (SMILES): COc1nccc(-c2c(-c3ccc(F)cc3)ncn2Cc2ccc(C#N)cc2)n1
- IC50 [1]: 859 nM
- IC50 (TGF-beta receptor type-1): > 1000 nM

Structure (SMILES): NC(=O)N(c1nc(-c2ccc(F)cc2)cs1)c1c(Cl)cccc1Cl
- IC50 [1]: 822 nM

Structure (SMILES): COc1nccc(-c2[nH]c(Cc3cccc(C#N)c3)nc2-c2ccc(F)cc2)n1
- IC50 [1]: 62.8 nM
- IC50 (TGF-beta receptor type-1): > 1000 nM

Structure (SMILES): Cc1cccc(-c2[nH]c(Cc3cccc(C(N)=O)c3)nc2-c2ccc3nccnc3c2)n1
- IC50 [1]: 4300 nM

Structure (SMILES): NC(=O)c1cccc(Cn2cnc(-c3ccc(F)cc3)c2-c2ccnc(NC3CC3)n2)c1
- IC50 [1]: 27.6 nM
- IC50 (TGF-beta receptor type-1): > 1000 nM

Structure (SMILES): NC(=O)c1cccc(Cn2cnc(-c3ccc(F)cc3)c2-c2ccnc(N)n2)c1
- IC50 [1]: 344 nM
- IC50 (TGF-beta receptor type-1): > 1000 nM

Structure (SMILES): COc1nccc(-c2ncn(Cc3cccc(C#N)c3)c2-c2ccc(F)cc2)n1
- IC50 [1]: > 1000 nM
- IC50 (TGF-beta receptor type-1): > 1000 nM

Structure (SMILES): C[C@H](Nc1nccc(-c2ncn(Cc3ccc(C(N)=O)cc3)c2-c2ccc(F)cc2)n1)c1ccccc1
- IC50 [1]: > 1000 nM
- IC50 (TGF-beta receptor type-1): > 1000 nM

Structure (SMILES): COc1nccc(-c2ncn(Cc3cccc(C(N)=O)c3)c2-c2ccc(F)cc2)n1
- IC50 [1]: > 1000 nM
- IC50 (TGF-beta receptor type-1): > 1000 nM

Structure (SMILES): NC(=O)c1cccc(Cn2cnc(-c3ccnc(NC4CC4)n3)c2-c2ccc(F)cc2)c1
- IC50 [1]: > 1000 nM
- IC50 (TGF-beta receptor type-1): > 1000 nM

Structure (SMILES): COc1nccc(-c2ncn(Cc3ccc(C#N)cc3)c2-c2ccc(F)cc2)n1
- IC50 [1]: > 1000 nM
- IC50 (TGF-beta receptor type-1): > 1000 nM

Structure (SMILES): COc1nccc(-c2ncn(Cc3ccc(C(N)=O)cc3)c2-c2ccc(F)cc2)n1
- IC50 [1]: > 1000 nM
- IC50 (TGF-beta receptor type-1): > 1000 nM

Structure (SMILES): C[C@H](Nc1nccc(-c2c(-c3ccc(F)cc3)ncn2Cc2ccc(C(N)=O)cc2)n1)c1ccccc1
- IC50 [1]: 55.6 nM
- IC50 (TGF-beta receptor type-1): > 1000 nM

Structure (SMILES): N#Cc1cccc(Cn2cnc(-c3ccnc(N)n3)c2-c2ccc(F)cc2)c1
- IC50 [1]: > 1000 nM
- IC50 (TGF-beta receptor type-1): > 1000 nM

Structure (SMILES): COc1ccc(CNc2nccc(-c3[nH]c(Cc4cccc(C#N)c4)nc3-c3ccc(F)cc3)n2)cc1
- IC50 [1]: 148 nM
- IC50 (TGF-beta receptor type-1): > 1000 nM

Structure (SMILES): N#Cc1cccc(Cc2nc(-c3ccc(F)cc3)c(-c3ccnc(NC4CC4)n3)[nH]2)c1
- IC50 [1]: 54.4 nM
- IC50 (TGF-beta receptor type-1): > 1000 nM

Structure (SMILES): C[C@H](Nc1nccc(-c2ncn(Cc3cccc(C(N)=O)c3)c2-c2ccc(F)cc2)n1)c1ccccc1
- IC50 [1]: > 1000 nM
- IC50 (TGF-beta receptor type-1): > 1000 nM

Structure (SMILES): COc1ccc(CNc2nccc(-c3c(-c4ccc(F)cc4)ncn3Cc3cccc(C#N)c3)n2)cc1
- IC50 [1]: 191 nM
- IC50 (TGF-beta receptor type-1): > 1000 nM

Structure (SMILES): C[C@H](Nc1nccc(-c2c(-c3ccc(F)cc3)ncn2Cc2cccc(C#N)c2)n1)c1ccccc1
- IC50 [1]: 140 nM
- IC50 (TGF-beta receptor type-1): > 1000 nM

Structure (SMILES): COc1ccc(CNc2nccc(-c3ncn(Cc4cccc(C#N)c4)c3-c3ccc(F)cc3)n2)cc1
- IC50 [1]: > 1000 nM
- IC50 (TGF-beta receptor type-1): > 1000 nM

Structure (SMILES): C[C@H](Nc1nccc(-c2c(-c3ccc(F)cc3)ncn2Cc2ccc(C#N)cc2)n1)c1ccccc1
- IC50 [1]: 87.1 nM
- IC50 (TGF-beta receptor type-1): > 1000 nM

Structure (SMILES): COc1nccc(-c2c(-c3ccc(F)cc3)ncn2Cc2cccc(C#N)c2)n1
- IC50 [1]: 260 nM
- IC50 (TGF-beta receptor type-1): > 1000 nM

Structure (SMILES): C[C@H](Nc1nccc(-c2ncn(Cc3cccc(C#N)c3)c2-c2ccc(F)cc2)n1)c1ccccc1
- IC50 [1]: > 1000 nM
- IC50 (TGF-beta receptor type-1): > 1000 nM

Structure (SMILES): C[C@H](Nc1nccc(-c2c(-c3ccc(F)cc3)ncn2Cc2cccc(C(N)=O)c2)n1)c1ccccc1
- IC50 [1]: 55.1 nM
- IC50 (TGF-beta receptor type-1): > 1000 nM

Structure (SMILES): NC(=O)c1cccc(Cn2cnc(-c3ccnc(N)n3)c2-c2ccc(F)cc2)c1
- IC50 [1]: > 1000 nM
- IC50 (TGF-beta receptor type-1): > 1000 nM

Structure (SMILES): COc1nccc(-c2c(-c3ccc(F)cc3)ncn2Cc2cccc(C(N)=O)c2)n1
- IC50 [1]: 225 nM
- IC50 (TGF-beta receptor type-1): > 1000 nM

Structure (SMILES): N#Cc1cccc(Cn2cnc(-c3ccc(F)cc3)c2-c2ccnc(NC3CC3)n2)c1
- IC50 [1]: 62.6 nM
- IC50 (TGF-beta receptor type-1): > 1000 nM

Structure (SMILES): NC(=O)c1cccc(Cc2nc(-c3ccc(F)cc3)c(-c3ccnc(NC4CC4)n3)[nH]2)c1
- IC50 [1]: 31 nM
- IC50 (TGF-beta receptor type-1): > 1000 nM

Structure (SMILES): COc1nccc(-c2[nH]c(Cc3cccc(C(N)=O)c3)nc2-c2ccc(F)cc2)n1
- IC50 [1]: 48.5 nM
- IC50 (TGF-beta receptor type-1): > 1000 nM

Structure (SMILES): COc1nccc(-c2c(-c3ccc(F)cc3)ncn2Cc2ccc(C(N)=O)cc2)n1
- IC50 [1]: 916 nM
- IC50 (TGF-beta receptor type-1): > 1000 nM

Structure (SMILES): N#Cc1cccc(Cn2cnc(-c3ccnc(NC4CC4)n3)c2-c2ccc(F)cc2)c1
- IC50 [1]: > 1000 nM
- IC50 (TGF-beta receptor type-1): > 1000 nM
